biological target: T1, AChE (EC3.1.1.7, Sigma product no. C2888) (Electrophorus electricus, UniProt O42275); assay: AChE inhibition by modified Ellman's method in 96-well microplates; type: biochemical; settings: not given
T1 construct: purchased Sigma (St. Louis, MO, USA) C2888
Procedure: The isolated lycodine-type alkaloids 1–14 were evaluated for their AChE inhibiting activity by Ellman’s method in 96-well microplates.
AChE (EC3.1.1.7, Sigma product no. C2888), acetylthiocholine iodide (ATCI), 5,5'-dithiobis [2-nitrobenzoic acid] (DTNB) and huperzine A (purity 98%) were purchased from Sigma (St. Louis, MO, USA).
Briefly, 0.1 M sodium phosphate buffer (140 µL, pH = 8.0), sample solution (20 µL) and enzyme solution (15 µL) were mixed and incubated at 4 °C for 20 min. Ten µL of 0.01 M DTNB was added and the reaction was then started by adding 0.075 M ATCI (10 µL). […] Blanks were set up by adding 20 µL buffer solutions instead of 20 µL sample solution. Experiment control was set up by adding 15 µL buffer solutions instead of 15 µL enzyme solution in order to deduct the sample background. All reactions were carried out thrice.

T1 sequence (O42275 24-633): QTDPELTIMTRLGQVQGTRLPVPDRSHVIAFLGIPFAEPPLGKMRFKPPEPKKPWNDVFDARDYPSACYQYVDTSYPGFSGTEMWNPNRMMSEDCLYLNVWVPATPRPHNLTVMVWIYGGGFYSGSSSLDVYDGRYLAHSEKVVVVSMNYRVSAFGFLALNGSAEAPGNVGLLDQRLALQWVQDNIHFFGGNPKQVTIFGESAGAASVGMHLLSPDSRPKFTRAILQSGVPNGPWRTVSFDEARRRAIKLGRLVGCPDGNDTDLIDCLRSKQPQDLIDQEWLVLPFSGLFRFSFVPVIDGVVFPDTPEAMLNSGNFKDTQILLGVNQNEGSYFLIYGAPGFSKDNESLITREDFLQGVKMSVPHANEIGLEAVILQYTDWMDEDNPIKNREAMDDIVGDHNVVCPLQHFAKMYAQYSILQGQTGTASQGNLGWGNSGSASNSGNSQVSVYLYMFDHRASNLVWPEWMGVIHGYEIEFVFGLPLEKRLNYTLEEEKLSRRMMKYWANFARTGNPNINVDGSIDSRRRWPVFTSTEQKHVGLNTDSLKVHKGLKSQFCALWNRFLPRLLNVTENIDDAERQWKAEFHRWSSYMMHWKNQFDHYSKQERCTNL

SMILES | IC50 [µM]
CC1=C[C@H]2Cc3[nH]c(=O)ccc3[C@]3(C1)NCCC[C@H]23 [Compound 9, huperzine B] | 20.2 ± 1.3
C=C[C@@H]1[C@H]2C=C(CO)C[C@]1(N)c1ccc(=O)[nH]c1C2 [Compound 13, lycoparin C] | 23.9 ± 2.2
C=CC1C2C=C(C)CC1(NC)c1ccc(=O)[nH]c1C2 (stereo not drawn) [Compound 7, N-demethylhuperzinine] | 1.9 ± 0.2
C=CC1C2C=C(CO)CC1(NC)c1ccc(=O)[nH]c1C2 (stereo not drawn) [Compound 10, casuarinine E] | > 250

same assay, conditions: qualitative statement

SMILES | AChE inhibitory activity in words
C=CC1C2C=C(C)CC1(N(C)C)c1ccc(=O)[nH]c1C2 (stereo not drawn) [Compound 5, huperzinine] | very weak activity
CC1=C[C@H]2Cc3[nH]c(=O)ccc3[C@]3(C1)NCCC[C@H]23 [Compound 9, huperzine B] | significant inhibitory activity
C=C[C@@H]1[C@H]2C=C(CO)C[C@]1(N)c1ccc(=O)[nH]c1C2 [Compound 13, lycoparin C] | significant inhibitory activity

tested on: AChE; assay: not given; settings: previously reported ref 8, 13, 21; cited from earlier work

SMILES | IC50 [µM]
CC1=C[C@H]2Cc3[nH]c(=O)ccc3[C@]3(C1)NCCC[C@H]23 [Compound 9, huperzine B] | 19.3
C=C[C@@H]1[C@H]2C=C(CO)C[C@]1(N)c1ccc(=O)[nH]c1C2 [Compound 13, lycoparin C] | 25

— article PMC6271639, “Lycodine-Type Alkaloids from Lycopodiastrum casuarinoides and Their Acetylcholinesterase Inhibitory Activity” (Molecules, 2014)
